Reference: paper PMC10209615, “Pharmacological inhibition of LSD1 suppresses growth of hepatocellular carcinoma by inducing GADD45B” (MedComm, 2023)

Legend:
Hep3B = experiment: Apoptosis analysis (Annexin V, flow cytometry); assay type: cell-based, human; conditions: 48 h
Procedure: (§1) Cells were fixed using 70% ethanol and stained with a Cell Cycle Detection Kit (KeyGEN). For apoptosis analysis, cells were exposed to ZY0511 alone or in combination with DTP3 for 48 h. Cells were harvested and stained with PE Annexin V Apoptosis Detection Kit (BD). The cell cycle or apoptosis induction was detected by using a flow cytometer (Agilent NovoCyte). Results were assessed by NovoExpress software (Agilent NovoCyte).

HepG2 = experiment: Apoptosis analysis (Annexin V, flow cytometry); assay type: cell-based, human; conditions: HepG2, 48 h
Procedure: as §1

PKCµ = biological target: T1, PKCµ (Homo sapiens, UniProt Q15139); experiment: Kinase activity detection (Eurofins); assay type: biochemical; conditions: ZY0511 1 µM, read-out: Inhibition rate
T1 construct: purchased Eurofins Pharma Discovery Services
Procedure: (§2) The activity of ZY0511 against 104 cancer‐related kinases was carried out by Eurofins Pharma Discovery Services (Celle Lévescault, France).

Met = biological target: T2, Met (Homo sapiens, UniProt P08581); experiment: Kinase activity detection (Eurofins); assay type: biochemical; conditions: ZY0511 1 µM, read-out: Inhibition rate
T2 construct: purchased Eurofins Pharma Discovery Services (KinaseProfiler)
Procedure: as §2

Tie2 = biological target: T3, Tie2 (Homo sapiens, UniProt Q02763); experiment: Kinase activity detection (Eurofins); assay type: biochemical; conditions: ZY0511 1 µM, read-out: Inhibition rate
T3 construct: purchased Eurofins Pharma Discovery Services (KinaseProfiler)
Procedure: as §2

[1] = biological target: T4, PI3 Kinase (p110α (E545K)/p85α) (Homo sapiens, UniProt P42336, E545K); experiment: Kinase activity detection (Eurofins); assay type: biochemical; conditions: ZY0511 1 µM, read-out: Inhibition rate
T4 construct: purchased Eurofins Pharma Discovery Services (KinaseProfiler)
Procedure: as §2

PKCα = biological target: T5, PKCα (Homo sapiens, UniProt P17252); experiment: Kinase activity detection (Eurofins); assay type: biochemical; conditions: ZY0511 1 µM, read-out: Activation rate
T5 construct: purchased Eurofins Pharma Discovery Services (KinaseProfiler)
Procedure: as §2

EphB4 = biological target: T6, EphB4 (Homo sapiens, UniProt P54760); experiment: Kinase activity detection (Eurofins); assay type: biochemical; conditions: ZY0511 1 µM, read-out: Activation rate
T6 construct: purchased Eurofins Pharma Discovery Services (KinaseProfiler)
Procedure: as §2

TAK1 = biological target: T7, TAK1 (Homo sapiens, UniProt O43318); experiment: Kinase activity detection (Eurofins); assay type: biochemical; conditions: ZY0511 1 µM, read-out: Inhibition rate
T7 construct: purchased Eurofins Pharma Discovery Services
Procedure: as §2

FGFR4 = biological target: T8, FGFR4 (Homo sapiens, UniProt P22455); experiment: Kinase activity detection (Eurofins); assay type: biochemical; conditions: ZY0511 1 µM, read-out: Inhibition rate
T8 construct: purchased Eurofins Pharma Discovery Services
Procedure: as §2

DAPK1 = biological target: T9, DAPK1 (Homo sapiens, UniProt P53355); experiment: Kinase activity detection (Eurofins); assay type: biochemical; conditions: ZY0511 1 µM, read-out: Activation rate
T9 construct: purchased Eurofins Pharma Discovery Services (KinaseProfiler)
Procedure: as §2

PKCι = biological target: T10, PKCι (Homo sapiens, UniProt P41743); experiment: Kinase activity detection (Eurofins); assay type: biochemical; conditions: ZY0511 1 µM, read-out: Inhibition rate
T10 construct: purchased Eurofins Pharma Discovery Services
Procedure: as §2

PKD2 = biological target: T11, PKD2 (Homo sapiens, UniProt Q9BZL6); experiment: Kinase activity detection (Eurofins); assay type: biochemical; conditions: ZY0511 1 µM, read-out: Inhibition rate
T11 construct: purchased Eurofins Pharma Discovery Services
Procedure: as §2

PDK1 = biological target: T12, PDK1 (Homo sapiens, UniProt O15530); experiment: Kinase activity detection (Eurofins); assay type: biochemical; conditions: ZY0511 1 µM, read-out: Inhibition rate
T12 construct: purchased Eurofins Pharma Discovery Services (KinaseProfiler)
Procedure: as §2

FGFR2 = biological target: T13, FGFR2 (Homo sapiens, UniProt P21802); experiment: Kinase activity detection (Eurofins); assay type: biochemical; conditions: ZY0511 1 µM, read-out: Inhibition rate
T13 construct: purchased Eurofins Pharma Discovery Services
Procedure: as §2

DNA-PK = biological target: T14, DNA-PK (Homo sapiens, UniProt P78527); experiment: Kinase activity detection (Eurofins); assay type: biochemical
T14 construct: purchased Eurofins Pharma Discovery Services
Procedure: as §2

CHK1 = biological target: T15, CHK1 (Homo sapiens, UniProt O14757); experiment: Kinase activity detection (Eurofins); assay type: biochemical; conditions: ZY0511 1 µM
T15 construct: purchased Eurofins Pharma Discovery Services (KinaseProfiler)
Procedure: as §2

ZIPK = biological target: T16, ZIPK (Homo sapiens, UniProt O43293); experiment: Kinase activity detection (Eurofins); assay type: biochemical; conditions: ZY0511 1 µM, read-out: Inhibition rate
T16 construct: purchased Eurofins Pharma Discovery Services (KinaseProfiler)
Procedure: as §2

PI3 Kinase (p120γ) = biological target: T17, PI3 Kinase (p120γ) (Homo sapiens, UniProt P48736); experiment: Kinase activity detection (Eurofins); assay type: biochemical; conditions: ZY0511 1 µM, read-out: Inhibition rate
T17 construct: purchased Eurofins Pharma Discovery Services (KinaseProfiler)
Procedure: as §2

PI3 Kinase (p110βγ/p85α) = biological target: T18, PI3 Kinase (p110βγ/p85α) (Homo sapiens, UniProt P42338); experiment: Kinase activity detection (Eurofins); assay type: biochemical; conditions: ZY0511 1 µM, read-out: Inhibition rate
T18 construct: purchased Eurofins Pharma Discovery Services (KinaseProfiler)
Procedure: as §2

Flt1 = biological target: T19, Flt1 (Homo sapiens, UniProt P17948); experiment: Kinase activity detection (Eurofins); assay type: biochemical; conditions: ZY0511 1 µM, read-out: Inhibition rate
T19 construct: purchased Eurofins Pharma Discovery Services (KinaseProfiler)
Procedure: as §2

EGFR (L861Q) = biological target: T20, EGFR (L861Q) (Homo sapiens, UniProt P00533, L861Q); experiment: Kinase activity detection (Eurofins); assay type: biochemical; conditions: ZY0511 1 µM, read-out: Inhibition rate
T20 construct: purchased Eurofins Pharma Discovery Services (KinaseProfiler)
Procedure: as §2

MEK1 = biological target: T21, MEK1 (Homo sapiens, UniProt Q02750); experiment: Kinase activity detection (Eurofins); assay type: biochemical; conditions: ZY0511 1 µM, read-out: Inhibition rate
T21 construct: purchased Eurofins Pharma Discovery Services (KinaseProfiler)
Procedure: as §2

ROCK-I = biological target: T22, ROCK-I (Homo sapiens, UniProt Q13464); experiment: Kinase activity detection (Eurofins); assay type: biochemical; conditions: ZY0511 1 µM, read-out: Inhibition rate
T22 construct: purchased Eurofins Pharma Discovery Services
Procedure: as §2

BRK = biological target: T23, BRK (Homo sapiens, UniProt Q13882); experiment: Kinase activity detection (Eurofins); assay type: biochemical; conditions: ZY0511 1 µM, read-out: Inhibition rate
T23 construct: purchased Eurofins Pharma Discovery Services (KinaseProfiler)
Procedure: as §2

CDK2/cyclinA = biological target: T24, CDK2/cyclinA (Homo sapiens, UniProt P24941); experiment: Kinase activity detection (Eurofins); assay type: biochemical; conditions: ZY0511 1 µM, read-out: Inhibition rate
T24 construct: purchased Eurofins Pharma Discovery Services
Procedure: as §2

B-Raf = biological target: T25, B-Raf (Homo sapiens, UniProt P15056); experiment: Kinase activity detection (Eurofins); assay type: biochemical; conditions: ZY0511 1 µM, read-out: Inhibition rate
T25 construct: purchased Eurofins Pharma Discovery Services (KinaseProfiler)
Procedure: as §2

cSRC = biological target: T26, cSRC (Homo sapiens, UniProt P12931); experiment: Kinase activity detection (Eurofins); assay type: biochemical; conditions: ZY0511 1 µM, read-out: Activation rate
T26 construct: purchased Eurofins Pharma Discovery Services (KinaseProfiler)
Procedure: as §2

ALK = biological target: T27, ALK (Homo sapiens, UniProt Q9UM73); experiment: Kinase activity detection (Eurofins); assay type: biochemical; conditions: ZY0511 1 µM, read-out: Activation rate
T27 construct: purchased Eurofins Pharma Discovery Services (KinaseProfiler)
Procedure: as §2

ARK5 = biological target: T28, ARK5 (Homo sapiens, UniProt O60285); experiment: Kinase activity detection (Eurofins); assay type: biochemical; conditions: ZY0511 1 µM
T28 construct: purchased Eurofins Pharma Discovery Services (KinaseProfiler)
Procedure: as §2

PI3 Kinase (p110δ/p85α) = biological target: T29, PI3 Kinase (p110δ/p85α) (Homo sapiens, UniProt O00329); experiment: Kinase activity detection (Eurofins); assay type: biochemical; conditions: ZY0511 1 µM, read-out: Inhibition rate
T29 construct: purchased Eurofins Pharma Discovery Services (KinaseProfiler)
Procedure: as §2

[2] = biological target: T30, PI3 Kinase (p110α (E542K)/p85α) (Homo sapiens, UniProt P42336, E542K); experiment: Kinase activity detection (Eurofins); assay type: biochemical; conditions: ZY0511 1 µM, read-out: Inhibition rate
T30 construct: purchased Eurofins Pharma Discovery Services
Procedure: as §2

Ros = biological target: T31, Ros (Homo sapiens, UniProt P08922); experiment: Kinase activity detection (Eurofins); assay type: biochemical; conditions: ZY0511 1 µM, read-out: Inhibition rate
T31 construct: purchased Eurofins Pharma Discovery Services
Procedure: as §2

LKB1 = biological target: T32, LKB1 (Homo sapiens, UniProt Q15831); experiment: Kinase activity detection (Eurofins); assay type: biochemical; conditions: ZY0511 1 µM, read-out: Inhibition rate
T32 construct: purchased Eurofins Pharma Discovery Services (KinaseProfiler)
Procedure: as §2

MAPK2 = biological target: T33, MAPK2 (Homo sapiens, UniProt P28482); experiment: Kinase activity detection (Eurofins); assay type: biochemical; conditions: ZY0511 1 µM, read-out: Activation rate
T33 construct: purchased Eurofins Pharma Discovery Services (KinaseProfiler)
Procedure: as §2

ATR/ATRIP = biological target: T34, ATR/ATRIP (Homo sapiens, UniProt Q13535); experiment: Kinase activity detection (Eurofins); assay type: biochemical
T34 construct: purchased Eurofins Pharma Discovery Services
Procedure: as §2

T34 sequence (Q13535 whole entry): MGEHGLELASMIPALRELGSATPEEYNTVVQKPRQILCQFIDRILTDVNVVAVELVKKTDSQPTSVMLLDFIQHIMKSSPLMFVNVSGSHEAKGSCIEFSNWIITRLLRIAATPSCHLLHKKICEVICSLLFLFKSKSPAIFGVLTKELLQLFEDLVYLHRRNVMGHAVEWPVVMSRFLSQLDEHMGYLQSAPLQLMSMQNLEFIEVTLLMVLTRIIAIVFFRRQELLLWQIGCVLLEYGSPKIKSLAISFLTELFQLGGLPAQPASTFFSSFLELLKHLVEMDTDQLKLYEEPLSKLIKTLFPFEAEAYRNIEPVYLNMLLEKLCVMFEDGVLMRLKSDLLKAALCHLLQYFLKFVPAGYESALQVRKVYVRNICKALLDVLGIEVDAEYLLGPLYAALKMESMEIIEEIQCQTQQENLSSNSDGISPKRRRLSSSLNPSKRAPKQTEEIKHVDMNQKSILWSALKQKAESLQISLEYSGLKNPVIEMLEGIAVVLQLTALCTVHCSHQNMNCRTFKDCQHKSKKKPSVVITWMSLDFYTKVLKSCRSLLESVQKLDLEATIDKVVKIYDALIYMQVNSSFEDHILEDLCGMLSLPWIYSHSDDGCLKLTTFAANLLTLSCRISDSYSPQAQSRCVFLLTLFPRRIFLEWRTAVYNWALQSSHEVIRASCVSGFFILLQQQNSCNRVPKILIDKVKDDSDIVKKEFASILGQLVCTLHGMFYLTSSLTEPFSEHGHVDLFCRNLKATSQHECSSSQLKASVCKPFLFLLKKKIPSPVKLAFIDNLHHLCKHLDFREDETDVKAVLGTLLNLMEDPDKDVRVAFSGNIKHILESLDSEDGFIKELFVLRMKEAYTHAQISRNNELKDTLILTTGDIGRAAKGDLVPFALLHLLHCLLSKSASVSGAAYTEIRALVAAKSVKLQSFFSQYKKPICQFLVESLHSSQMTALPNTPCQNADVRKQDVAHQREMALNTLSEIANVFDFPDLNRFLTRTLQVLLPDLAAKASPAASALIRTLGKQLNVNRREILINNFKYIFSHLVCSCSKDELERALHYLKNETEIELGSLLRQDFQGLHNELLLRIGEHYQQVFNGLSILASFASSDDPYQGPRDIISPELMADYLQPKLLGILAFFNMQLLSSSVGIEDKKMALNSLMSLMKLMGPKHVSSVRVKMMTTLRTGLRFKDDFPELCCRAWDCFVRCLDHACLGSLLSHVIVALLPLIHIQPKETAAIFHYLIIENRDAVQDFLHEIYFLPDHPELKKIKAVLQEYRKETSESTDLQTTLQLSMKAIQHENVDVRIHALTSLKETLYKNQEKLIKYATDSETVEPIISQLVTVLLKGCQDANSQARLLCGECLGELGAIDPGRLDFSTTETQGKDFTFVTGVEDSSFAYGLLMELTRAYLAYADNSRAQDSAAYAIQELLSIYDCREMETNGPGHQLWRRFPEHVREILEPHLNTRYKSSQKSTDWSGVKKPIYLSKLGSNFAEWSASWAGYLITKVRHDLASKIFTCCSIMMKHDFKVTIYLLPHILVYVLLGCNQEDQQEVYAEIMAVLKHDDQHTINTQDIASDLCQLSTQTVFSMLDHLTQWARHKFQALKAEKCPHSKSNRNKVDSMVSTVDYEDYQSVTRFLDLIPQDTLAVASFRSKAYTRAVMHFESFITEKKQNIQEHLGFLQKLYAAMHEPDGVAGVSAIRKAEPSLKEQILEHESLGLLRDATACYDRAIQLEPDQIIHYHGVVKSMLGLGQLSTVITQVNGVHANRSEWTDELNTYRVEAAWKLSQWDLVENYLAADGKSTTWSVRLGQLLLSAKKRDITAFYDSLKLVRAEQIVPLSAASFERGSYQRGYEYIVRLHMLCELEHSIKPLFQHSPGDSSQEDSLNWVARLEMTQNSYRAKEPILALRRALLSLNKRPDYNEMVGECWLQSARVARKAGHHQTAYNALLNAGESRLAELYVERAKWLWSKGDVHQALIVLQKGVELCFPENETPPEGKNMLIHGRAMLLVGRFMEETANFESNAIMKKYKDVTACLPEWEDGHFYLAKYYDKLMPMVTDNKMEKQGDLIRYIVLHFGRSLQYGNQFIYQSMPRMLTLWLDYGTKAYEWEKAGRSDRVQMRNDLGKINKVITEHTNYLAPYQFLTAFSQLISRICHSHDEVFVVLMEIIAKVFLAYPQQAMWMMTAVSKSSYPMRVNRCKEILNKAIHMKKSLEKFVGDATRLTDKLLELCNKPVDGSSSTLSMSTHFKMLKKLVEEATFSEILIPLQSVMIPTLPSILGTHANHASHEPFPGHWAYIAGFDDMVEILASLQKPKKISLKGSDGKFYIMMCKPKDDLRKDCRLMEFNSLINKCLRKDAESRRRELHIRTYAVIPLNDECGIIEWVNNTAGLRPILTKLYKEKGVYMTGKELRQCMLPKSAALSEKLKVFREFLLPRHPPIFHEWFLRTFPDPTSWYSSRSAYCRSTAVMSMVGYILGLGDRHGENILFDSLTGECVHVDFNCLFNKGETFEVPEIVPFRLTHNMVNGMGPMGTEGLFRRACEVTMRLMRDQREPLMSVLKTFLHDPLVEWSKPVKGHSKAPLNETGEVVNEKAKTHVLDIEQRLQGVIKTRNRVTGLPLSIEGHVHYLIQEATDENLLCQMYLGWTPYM
T34 sequence (Q8WXE1 whole entry partner): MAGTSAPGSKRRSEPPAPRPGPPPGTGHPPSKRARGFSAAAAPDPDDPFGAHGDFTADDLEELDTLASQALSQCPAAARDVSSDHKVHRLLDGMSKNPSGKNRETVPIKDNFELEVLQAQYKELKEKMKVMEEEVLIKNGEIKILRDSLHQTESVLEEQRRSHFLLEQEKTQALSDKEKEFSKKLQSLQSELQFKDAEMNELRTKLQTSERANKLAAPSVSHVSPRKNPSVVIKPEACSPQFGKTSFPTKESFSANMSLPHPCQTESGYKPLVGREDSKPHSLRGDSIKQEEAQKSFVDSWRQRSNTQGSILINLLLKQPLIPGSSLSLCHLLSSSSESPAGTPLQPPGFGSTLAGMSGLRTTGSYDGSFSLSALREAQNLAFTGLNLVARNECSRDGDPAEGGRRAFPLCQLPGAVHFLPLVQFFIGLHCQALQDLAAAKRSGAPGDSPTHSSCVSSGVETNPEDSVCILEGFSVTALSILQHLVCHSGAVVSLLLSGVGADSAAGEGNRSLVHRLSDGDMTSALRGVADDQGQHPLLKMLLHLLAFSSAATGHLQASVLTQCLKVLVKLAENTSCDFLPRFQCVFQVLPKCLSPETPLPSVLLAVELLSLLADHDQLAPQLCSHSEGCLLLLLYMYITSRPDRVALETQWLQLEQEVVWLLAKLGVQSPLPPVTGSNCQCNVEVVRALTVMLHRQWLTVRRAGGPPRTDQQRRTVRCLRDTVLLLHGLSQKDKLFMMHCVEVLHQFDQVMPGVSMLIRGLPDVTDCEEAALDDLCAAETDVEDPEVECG
T2 sequence (P08581 25-1390): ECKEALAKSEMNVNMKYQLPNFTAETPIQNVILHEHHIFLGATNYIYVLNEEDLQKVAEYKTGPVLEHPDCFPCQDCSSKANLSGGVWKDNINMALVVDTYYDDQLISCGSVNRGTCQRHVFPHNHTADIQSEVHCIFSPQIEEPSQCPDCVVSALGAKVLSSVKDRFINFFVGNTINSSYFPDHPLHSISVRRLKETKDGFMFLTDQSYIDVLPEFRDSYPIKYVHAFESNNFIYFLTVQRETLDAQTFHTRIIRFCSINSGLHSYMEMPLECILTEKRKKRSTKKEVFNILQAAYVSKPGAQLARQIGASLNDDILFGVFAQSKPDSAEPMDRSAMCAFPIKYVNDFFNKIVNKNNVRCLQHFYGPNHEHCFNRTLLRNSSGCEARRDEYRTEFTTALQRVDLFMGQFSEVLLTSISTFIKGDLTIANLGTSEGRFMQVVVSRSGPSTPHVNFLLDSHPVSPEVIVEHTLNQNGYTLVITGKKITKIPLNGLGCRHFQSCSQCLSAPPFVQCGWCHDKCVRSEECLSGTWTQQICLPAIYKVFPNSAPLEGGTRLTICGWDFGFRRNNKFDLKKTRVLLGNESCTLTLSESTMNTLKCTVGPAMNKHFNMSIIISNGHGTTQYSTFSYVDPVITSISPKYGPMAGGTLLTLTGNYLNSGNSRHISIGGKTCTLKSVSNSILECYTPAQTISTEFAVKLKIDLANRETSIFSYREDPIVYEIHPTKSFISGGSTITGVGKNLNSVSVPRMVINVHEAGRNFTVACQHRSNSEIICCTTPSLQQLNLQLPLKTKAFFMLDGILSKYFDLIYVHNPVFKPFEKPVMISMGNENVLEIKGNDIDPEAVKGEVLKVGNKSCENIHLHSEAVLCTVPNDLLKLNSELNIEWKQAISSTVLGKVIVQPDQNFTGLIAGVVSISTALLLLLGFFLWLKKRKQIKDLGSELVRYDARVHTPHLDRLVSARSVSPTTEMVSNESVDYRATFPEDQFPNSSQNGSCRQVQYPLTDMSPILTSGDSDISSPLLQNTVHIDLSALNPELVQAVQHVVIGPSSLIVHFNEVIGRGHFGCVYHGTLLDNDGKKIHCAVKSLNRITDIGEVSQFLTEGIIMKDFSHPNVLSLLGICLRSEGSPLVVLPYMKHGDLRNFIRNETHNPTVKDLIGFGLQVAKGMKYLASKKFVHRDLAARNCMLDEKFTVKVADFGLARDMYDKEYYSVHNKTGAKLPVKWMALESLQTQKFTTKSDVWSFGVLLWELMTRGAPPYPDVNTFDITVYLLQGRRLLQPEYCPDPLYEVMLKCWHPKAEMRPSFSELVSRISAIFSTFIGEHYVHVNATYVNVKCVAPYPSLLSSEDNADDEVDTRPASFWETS
T7 sequence (O43318 1-303 limits assumed): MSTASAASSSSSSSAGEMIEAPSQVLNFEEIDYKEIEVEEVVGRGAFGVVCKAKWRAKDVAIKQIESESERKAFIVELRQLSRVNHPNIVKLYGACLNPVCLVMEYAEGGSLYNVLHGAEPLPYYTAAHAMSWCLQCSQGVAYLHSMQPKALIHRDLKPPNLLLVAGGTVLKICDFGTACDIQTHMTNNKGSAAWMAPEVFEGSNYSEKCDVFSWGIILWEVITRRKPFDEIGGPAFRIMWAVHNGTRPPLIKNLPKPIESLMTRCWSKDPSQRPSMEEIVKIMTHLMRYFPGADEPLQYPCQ

O=C(N/N=C1\CCc2c(Cl)ccc(O)c21)c1cccc(S(=O)(=O)N2CCOCC2)c1 [ZY0511, (E)‐N'‐(2, 3‐dihydro‐1H‐inden‐1‐ylidene) benzohydrazides]
apoptotic rate (Hep3B): 6.98%
apoptotic rate (HepG2): 6.49%
blood routine indexes (red blood cell, white blood cell, lymph cell) (Acute toxicity assay; 400 mg/kg i.p., day 14): did not change
liver and kidney function indexes (ALT, AST, creatinine) (Acute toxicity assay; 400 mg/kg i.p., day 14): did not change
pathology of main organs (heart, liver, spleen, lung, kidney) (Acute toxicity assay; 400 mg/kg i.p., day 14, H&E): No pathological abnormality
no observed adverse effect level (Acute toxicity assay; mice, i.p.): 400 mg/kg
inhibition at 1 µM (PKCµ): 10%
inhibition at 1 µM (Met): 20%
inhibition at 1 µM (Tie2): 50%
inhibition at 1 µM [1]: 15%
activation at 1 µM (PKCα): 4%
activation at 1 µM (EphB4): 5%
inhibition at 1 µM (TAK1): 1%
inhibition at 1 µM (FGFR4): 14%
activation at 1 µM (DAPK1): 5%
inhibition at 1 µM (PKCι): 2%
inhibition at 1 µM (PKD2): 2%
inhibition at 1 µM (PDK1): 8%
inhibition at 1 µM (FGFR2): 11%
inhibition at 1 µM (DNA-PK; DNA-PK, ZY0511 1 µM, read-out: Inhibition rate): 60%
IC50 (DNA-PK; DNA‐PK): > 10 µM
Activation rate (CHK1): 1%
inhibition at 1 µM (ZIPK): 6%
inhibition at 1 µM (PI3 Kinase (p120γ)): 10%
inhibition at 1 µM (PI3 Kinase (p110βγ/p85α)): 8%
inhibition at 1 µM (Flt1): 20%
inhibition at 1 µM (EGFR (L861Q)): 6%
inhibition at 1 µM (MEK1): 6%
inhibition at 1 µM (ROCK-I): 11%
inhibition at 1 µM (BRK): 4%
inhibition at 1 µM (CDK2/cyclinA): 10%
inhibition at 1 µM (B-Raf): 29%
activation at 1 µM (cSRC): 4%
activation at 1 µM (ALK): 23%
Activation rate (ARK5): 6%
inhibition at 1 µM (PI3 Kinase (p110δ/p85α)): 6%
inhibition at 1 µM [2]: 2%
inhibition at 1 µM (Ros): 11%
inhibition at 1 µM (LKB1): 15%
activation at 1 µM (MAPK2): 16%
IC50 (ATR/ATRIP): 9.59 µM
inhibition at 1 µM (ATR/ATRIP; ZY0511 1 µM, read-out: Inhibition rate): 62%
